Data: US20240417405A1, “Substituted Spiro Derivatives” (Janssen Pharmaceutica NV, priority 2021, published 2024)
Read-outs that look alike come from different tables or passages of the source.

What was measured:
[1] = biological target: T1, menin/MLL (terbium chelate-labeled menin, FITC-MBM1 peptide) (Homo sapiens, UniProt O00255, T541A); assay: Menin/MLL homogenous time-resolved fluorescence (HTRF) assay; format: binding; details: 30 min incubation
T1 construct: Menin (a.a 1-610-6xhis tag)
T1 sequence (O00255 with tags, fused parts or gaps T541A): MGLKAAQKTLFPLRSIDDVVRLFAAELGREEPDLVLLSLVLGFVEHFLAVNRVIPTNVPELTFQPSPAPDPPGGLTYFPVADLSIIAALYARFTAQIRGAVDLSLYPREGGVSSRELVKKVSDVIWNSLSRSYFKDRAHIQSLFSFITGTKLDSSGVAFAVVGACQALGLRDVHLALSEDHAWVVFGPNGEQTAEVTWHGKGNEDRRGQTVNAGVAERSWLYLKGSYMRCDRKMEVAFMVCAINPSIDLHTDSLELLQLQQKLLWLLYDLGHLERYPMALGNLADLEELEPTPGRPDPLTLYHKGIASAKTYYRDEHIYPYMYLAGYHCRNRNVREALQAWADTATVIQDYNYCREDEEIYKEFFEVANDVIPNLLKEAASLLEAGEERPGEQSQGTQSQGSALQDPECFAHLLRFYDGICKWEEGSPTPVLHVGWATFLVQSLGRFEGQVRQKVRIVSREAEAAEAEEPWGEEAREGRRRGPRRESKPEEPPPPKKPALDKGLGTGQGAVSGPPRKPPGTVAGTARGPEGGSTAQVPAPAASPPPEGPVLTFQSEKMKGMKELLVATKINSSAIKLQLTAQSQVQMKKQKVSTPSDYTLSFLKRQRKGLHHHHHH
Outline: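 Terbium-labeled menin (aa 1-610, His-tagged; 200 pM) preincubated 30 min with compound, then 75 nM FITC-MBM1 peptide added for 15 min at ambient temperature in pH 7.5 Tris buffer, 0.5% DMSO. HTRF ratio 520/490 nm converted to % inhibition. IC50 came from an 11-point four-fold titration from 10 μM, floor 0.1 nM.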

[2] = tested on: MOLM14 cells; assay: Proliferation assay, spheroid-like growth, MOLM14 (MLL-AF9 rearranged); format: cell-based, human; details: 8 days, confluence as measure of spheroid size, read-out: spheroid assay_OneTime MOLM14 IC50
Outline: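 Cells seeded in ultra-low attachment round-bottom wells (200 MOLM14 or 300 KO-52 per well) with compound at several concentrations, DMSO 0.3%, grown 8 days at 37° C, 5% CO2. Spheroid size taken as confluence from day-8 live-cell images; IC50 from variable-slope fit, DMSO as 0% and high-dose reference compound as 100% effect.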

[3] = tested on: KO-52 cells; assay: Proliferation assay, spheroid-like growth, KO-52 (MLL wildtype control cell line); format: cell-based, human; details: KO-52 control cells, 8 days, confluence as measure of spheroid size, read-out: spheroid assay_OneTime KO-52 IC50
Protocol: The anti-proliferative effect of menin/MLL protein/protein interaction inhibitor test compounds was assessed in human leukemia cell lines. The cell line MOLM14 harbors a MLL translocation and expresses the MLL fusion proteins MLL-AF9, respectively, as well as the wildtype protein from the second allele. […] KO-52 was used as a control cell line containing two MLL (KMT2A) wildtype alleles in order to exclude compounds that display general cytotoxic effects.
MOLM14 cells were cultured in RPMI-1640 (Sigma Aldrich) supplemented with 10% heat-inactivated fetal bovine serum (HyClone), 2 mM L-glutamine (Sigma Aldrich) and 50 μg/ml gentamycin (Gibco). KO-52 cell lines were propagated in alpha-MEM (Sigma Aldrich) supplemented with 20% heat-inactivated fetal bovine serum (HyClone), 2 mM L-glutamine (Sigma Aldrich) and 50 μg/ml gentamycin (Gibco).
In order to assess the anti-proliferative effects, 200 MOLM14 cells, or 300 KO-52 cells were seeded in 200 μl media per well in 96-well round bottom, ultra-low attachment plates (Costar, catalogue number 7007). Cell seeding numbers were chosen based on growth curves to ensure linear growth throughout the experiment. Test compounds were added at different concentrations and the DMSO content was normalized to 0.3%. Cells were incubated for 8 days at 37° C. and 5% CO2. Spheroid like growth was measured in real-time by live-cell imaging (IncuCyteZOOM, Essenbio, 4× objective) acquiring images at day 8. Confluence (%) as a measure of spheroid size was determined using an integrated analysis tool.
In order to determine the effect of the test compounds over time, the confluence in each well as a measure of spheroid size, was calculated. Confluence of the highest dose of a reference compound was used as baseline for the LC (Low control) and the confluence of DMSO treated cells was used as 0% cytotoxicity (High Control, HC).
Absolute IC50 values were calculated as percent change in confluence as follows:
LC=Low Control: cells treated with e.g. 1 μM of the cytotoxic agent staurosporin, or e.g. cells treated with a high concentration of an alternative reference compound
GraphPad Prism (version 7.00) was used to calculate the IC50. Dose-response equation was used for the plot of % Effect vs Log 10 compound concentration with a variable slope and fixing the maximum to 100% and the minimum to 0%.

SMILES | IC50 [1] [nM] | IC50 ([2]; Homo sapiens, MOLM-14, 192 h) [nM] | IC50 ([3]; Homo sapiens, 192 h) [µM] | IC50 [2] [nM] | IC50 [3] [µM]
CC(C)[C@H]([C@H]1C[C@@H](N2CC(O)C3(CC3)C2)C1)N1CC2(CCN(c3ncnnc3Oc3ccc(F)cc3-c3cncnc3C3CC3)C2)C1 (mixture of isomers) [Compound 42] | 0.1 | 4 | 2.12 |  | 
CC(C)[C@H]([C@H]1C[C@H](N2CC(O)C3(CC3)C2)C1)N1CC2(CCN(c3ncnnc3Oc3ccc(F)cc3-c3cncnc3C3CC3)C2)C1 (mixture of isomers) [Compound 43] | 0.1 | 42 | 9.96 |  | 
CC(C)[C@H]([C@H]1C[C@H](N2CC(O)C3(CCC3)C2)C1)N1CC2(CCN(c3ncnnc3Oc3ccc(F)cc3-c3cncnc3C3CC3)C2)C1 (mixture of isomers) [Compound 213] | 0.1 | 41 | 3.91 |  | 
COC1(C)CCN([C@H]2C[C@H]([C@H](C(C)C)N3CC4(CCN(c5ncnnc5Oc5ccc(F)cc5-c5nnccc5C5CC5)C4)C3)C2)C1 (mixture of isomers) [Compound 276] | 0.8 | 82 | > 15 |  | 
CC(C)C([C@H]1C[C@@H](N)C1)N1CC2(CCN(c3ncnnc3Oc3ccc(F)cc3-c3cncnc3C3CC3)C2)C1 (single isomer, unassigned) [Compound 1a] | 0.1 |  | > 15 | 20 | 
CC(C)C([C@H]1C[C@@H](N)C1)N1CC2(CCN(c3ncnnc3Oc3ccc(F)cc3-c3cncnc3C3CC3)C2)C1 (single isomer, unassigned) [Compound 1b] | 0.4 |  |  | 200 | > 15
CC(=O)N[C@H]1C[C@@H]([C@@H](C(C)C)N2CC3(CCN(c4ncnnc4Oc4ccc(F)cc4-c4cncnc4C4CC4)C3)C2)C1 (single isomer, unassigned) [Compound 2a] | 0.2 | 22 | 7 |  | 
CC(=O)NC1CC(C(C(C)C)N2CC3(CCN(c4ncnnc4Oc4ccc(F)cc4-c4cncnc4C4CC4)C3)C2)C1 (single isomer, unassigned) [Compound 2b] | 16.6 |  |  | 1310 | > 15
CC(C)[C@H](C1CCN(CC2(O)CC2)CC1)N1CC2(CCN(c3ncnnc3Oc3ccc(F)cc3-c3cncnc3C3CC3)C2)C1 (single isomer, unassigned) [Compound 4] | 0.3 | 66 | 7.73 |  | 
CC(C)[C@H]([C@H]1C[C@H](N2CCC(C)(C(=O)N(C)C)CC2)C1)N1CC2(CCN(c3ncnnc3Oc3ccc(F)cc3-c3cncnc3C3CC3)C2)C1 (single isomer, unassigned) [Compound 63] |  | 57 | > 15 |  | 
CC(C)[C@H]([C@H]1C[C@@H](NC(=O)C2CC2)C1)N1CC2(CCN(c3ncnnc3Oc3ccc(F)cc3-c3cccc(=O)n3C3CC3)C2)C1 (single isomer, unassigned) [Compound 190] |  | 76 | 14.8 |  | 
CC(C)[C@@H]([C@H]1C[C@@H](NC(=O)C2CC2)C1)N1CC2(CCN(c3ncnnc3Oc3ccc(F)cc3-c3cccc(=O)n3C3CC3)C2)C1 (single isomer, unassigned) [Compound 191] |  | > 940 | > 15 |  | 
CC(C)[C@H]([C@H]1C[C@@H](N2CC[C@](C)(O)C2)C1)N1CC2(CCN(c3ncnnc3Oc3ccc(F)cc3-c3cncnc3C3CC3)C2)C1 [Compound 12] |  | 2 | > 15 |  | 
CC(C)C([C@H]1C[C@H](N2CCC(C)(O)CC2)C1)N1CC2(CCN(c3ncnnc3Oc3ccc(F)cc3-c3cncnc3C3CC3)C2)C1 (stereo partly drawn) [Compound 130] |  | 120 | > 15 |  | 
CC(C)C([C@H]1C[C@H](NCC(C)(C)O)C1)N1CC2(CCN(c3ncnnc3Oc3ccc(F)cc3-c3cncnc3C3CC3)C2)C1 (stereo partly drawn) [Compound 134] |  | 130 | 13.2 |  | 
CC(C)C([C@H]1C[C@H](N2CC3(COC3)C2)C1)N1CC2(CCN(c3ncnnc3Oc3ccc(F)cc3-c3ncc(C#N)cc3C3CC3)C2)C1 (stereo partly drawn) [Compound 141] |  | 260 | 12.4 |  | 
CC(C)C([C@H]1C[C@@H](N2C[C@H]3COC[C@H]3C2)C1)N1CC2(CCN(c3ncnnc3Oc3ccc(F)cc3-c3cnc(C#N)nc3C3CC3)C2)C1 (stereo partly drawn) [Compound 166] |  | 3 | 1.53 |  | 
Fc1ccc(Oc2nncnc2N2CCC3(C2)CN(C(C2CCN(CC4COC4)CC2)C24CC(C2)C4)C3)c(-c2nnccc2C2CC2)c1 (stereo not drawn) [Compound 340] |  | 170 | 11.4 |  | 
Cc1ncc(-c2cc(F)ccc2Oc2nncnc2N2CCC3(C2)CN([C@@H](C(C)C)[C@H]2C[C@@H](N4CC5(CN(C(=O)C6CC6)C5)C4)C2)C3)c(C2CC2)n1 [Compound 392] | 0.11 | 2 |  |  | 
CNC(=O)[C@H]1CCN([C@H]2C[C@@H]([C@H](C(C)C)N3CC4(CCN(c5ncnnc5Oc5ccc(F)cc5-c5cnc(C)nc5C5CC5)C4)C3)C2)C1 [Compound 393] | 0.13 | < 1.8 |  |  | 
CC(=O)N1CC2(C1)CN([C@H]1C[C@@H]([C@H](C(C)C)N3CC4(CCN(c5ncnnc5Oc5ccc(F)cc5-c5cnc(C)nc5C5CC5)C4)C3)C1)C2 [Compound 394] | 0.083 | 3 |  |  | 
Cc1ncc(-c2cc(F)ccc2Oc2nncnc2N2CCC3(C2)CN([C@@H](C(C)C)[C@H]2C[C@@H](N4C[C@H]5COC[C@H]5C4)C2)C3)c(C2CC2)n1 [Compound 396] | 0.059 | < 1.8 |  |  | 
CO[C@H]1CCN([C@H]2C[C@@H]([C@H](C(C)C)N3CC4(CCN(c5ncnnc5Oc5ccc(F)cc5-c5nnc(C)cc5C5CC5)C4)C3)C2)C1 [Compound 398] | 0.144 | 6.4 |  |  | 
Cc1cc(C2CC2)c(-c2cc(F)ccc2Oc2nncnc2N2CCC3(C2)CN([C@@H](C(C)C)[C@H]2C[C@H](N4C[C@@H]5[C@H](C4)[C@H]5C(=O)N(C)C)C2)C3)nn1 [Compound 401] | 0.52 | 260 |  |  | 
CO[C@H]1[C@@H]2CN([C@H]3C[C@@H]([C@H](C(C)C)N4CC5(CCN(c6ncnnc6Oc6ccc(F)cc6-c6nnc(C)cc6C6CC6)C5)C4)C3)C[C@@H]21 [Compound 402] | 0.17 | 9 |  |  | 
CO[C@H]1[C@@H]2CN([C@H]3C[C@H]([C@H](C(C)C)N4CC5(CCN(c6ncnnc6Oc6ccc(F)cc6-c6nnc(C)cc6C6CC6)C5)C4)C3)C[C@@H]21 [Compound 403] | 0.59 | 230 |  |  | 
CC(=O)Nc1cc(NC2CC(C(C(C)C)N3CC4(CCN(c5ncnnc5Oc5ccc(F)cc5-c5cncnc5C5CC5)C4)C3)C2)ccn1 (stereo not drawn) [Compound 407] | 0.11 | < 1.8 |  |  | 
